From patent US20240207292A1, “BORONIC ACID COMPOUNDS, COMPOSITIONS AND METHODS” (Trustees of Tufts College, priority 2021, published 2024)

How the values were obtained:
[1] = Stability of 6555 with stabilizers over hours without AAPH (50 mM NH4OAc at RT or Ultrapura water at 40° C.); format: physicochemical
Excerpt: The effect of specified sulfur-containing compounds and other stabilizer compounds (including non-sulfur-containing stabilizer compounds) and mixtures of sulfur-containing compounds and non-sulfur-containing stabilizer compounds with the boronic acid compound 6555 (structure shown above) at various pH values.

recombinant human FAP = recombinant human FAP (Homo sapiens (Human), UniProt Q12884); assay: In vitro enzyme IC50 assay, FAP (Example 16); format: biochemical; conditions: 10 min preincubation at 25° C.; Z-Gly-Pro-AMC
Protocol: Biological Materials: For the in vitro IC50 determination assays, recombinant human DPPIV, DPP9, FAP, and PREP were purchased from R&D Systems, and DPP8 was from Biomol International. Buffer systems used were A (25 mM Tris, pH 8.0), B (50 mM Tris, pH 7.5), C (50 mM Tris, 140 mM NaCl, pH 7.5), D (25 mM Tris, 250 mM NaCl, pH 7.5), and E (20 mM Tris, 20 mM KCl, pH 7.4). […] Substrate Specificity Assay. Peptide libraries (0.21 mM) were incubated for 24 h with 1 nM FAP in buffer E at 37° C. The reaction was quenched by the addition of 1.2 N HCl. The samples were analyzed by reverse-phase HPLC-MS on a Thermo Finnigan LCQ Duo, quantifying the peaks in the resulting base peak chromatograms. Relative cleavage values were determined by comparing the postquench abundance of intact peptides to those in the initial library.
In Vitro Enzyme IC50 Assays. Enzymatic activity of DPPIV, DPP8, DPP9, FAP, and PREP was measured at 25° C. on a Molecular Devices M2e multidetection microtiter plate reader, monitoring the fluorescence at an excitation wavelength of 380 nm and an emission wavelength of 460 nm. The substrate was either H-Gly-Pro-AMC for the DPPIV, DPP8, and DPP9 assays or Z-Gly-Pro-AMC for the FAP and PREP assays. […] The final enzyme concentrations were 0.1, 0.8, 0.4, 1.2, and 0.6 nM for DPPIV, DPP8, DPP9, FAP, and PREP, respectively. […] Those prepared in pH 2.0 solution were preincubated at 25° C. for 4 h prior to dilution. Immediately prior to the commencement of the experiment, the 100 mM stocks were further diluted to 10^-3 M in the appropriate assay buffer, from which 1:10 serial dilutions were prepared. All inhibitors were tested in triplicate.

[2] = Degradation in aqueous solution of pH about 3 during HPLC purification and lyophilization; conditions: during HPLC purification and subsequent lyophilization
[3] = target: recombinant human prolyl oligopeptidase (PREP) (Homo sapiens (Human), UniProt P48147); assay: In vitro assay prolyl oligopeptidase IC50 (Example 21); format: biochemical
[4] = Effect of NAM on stability of 6522/6555 with 50 mM AAPH at 60° C. for 60 mins as a function of pH; format: physicochemical; conditions: 5 mM NAM and 50 mM AAPH
Protocol: Effect of […] N-acetyl methionine (NAM) on the stability of the compounds 6522 (6522 compound structure shown above) at 60° C. in the presence of AAPH 2,2′-azobis-(2-amidopropane)hydrochloride as a function of pH.
• Concentration: of 6522 2 mg/mL • Reaction condition: With 5 mM NAM and 50 mM AAPH, at 60° C. for 60 mins

Chain of recombinant human prolyl oligopeptidase (PREP) (P48147 whole entry): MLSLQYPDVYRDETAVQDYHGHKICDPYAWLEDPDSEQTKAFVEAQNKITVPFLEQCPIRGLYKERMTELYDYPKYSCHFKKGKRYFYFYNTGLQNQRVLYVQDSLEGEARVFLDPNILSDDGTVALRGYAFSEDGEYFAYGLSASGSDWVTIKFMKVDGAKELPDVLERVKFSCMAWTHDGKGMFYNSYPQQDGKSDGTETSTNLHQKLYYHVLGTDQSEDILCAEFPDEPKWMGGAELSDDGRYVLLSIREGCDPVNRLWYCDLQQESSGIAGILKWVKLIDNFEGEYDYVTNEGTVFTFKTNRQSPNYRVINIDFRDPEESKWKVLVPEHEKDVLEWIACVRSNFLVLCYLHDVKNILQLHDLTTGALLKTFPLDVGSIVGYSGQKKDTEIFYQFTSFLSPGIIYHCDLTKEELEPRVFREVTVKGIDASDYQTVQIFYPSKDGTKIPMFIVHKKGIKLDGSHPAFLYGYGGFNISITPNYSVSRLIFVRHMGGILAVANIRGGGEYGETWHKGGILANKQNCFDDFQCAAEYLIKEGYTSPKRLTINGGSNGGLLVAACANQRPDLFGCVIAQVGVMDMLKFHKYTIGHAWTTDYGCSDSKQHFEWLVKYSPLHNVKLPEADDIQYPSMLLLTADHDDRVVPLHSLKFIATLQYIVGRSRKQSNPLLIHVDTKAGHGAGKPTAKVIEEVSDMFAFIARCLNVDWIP
Chain of recombinant human FAP (Q12884 whole entry): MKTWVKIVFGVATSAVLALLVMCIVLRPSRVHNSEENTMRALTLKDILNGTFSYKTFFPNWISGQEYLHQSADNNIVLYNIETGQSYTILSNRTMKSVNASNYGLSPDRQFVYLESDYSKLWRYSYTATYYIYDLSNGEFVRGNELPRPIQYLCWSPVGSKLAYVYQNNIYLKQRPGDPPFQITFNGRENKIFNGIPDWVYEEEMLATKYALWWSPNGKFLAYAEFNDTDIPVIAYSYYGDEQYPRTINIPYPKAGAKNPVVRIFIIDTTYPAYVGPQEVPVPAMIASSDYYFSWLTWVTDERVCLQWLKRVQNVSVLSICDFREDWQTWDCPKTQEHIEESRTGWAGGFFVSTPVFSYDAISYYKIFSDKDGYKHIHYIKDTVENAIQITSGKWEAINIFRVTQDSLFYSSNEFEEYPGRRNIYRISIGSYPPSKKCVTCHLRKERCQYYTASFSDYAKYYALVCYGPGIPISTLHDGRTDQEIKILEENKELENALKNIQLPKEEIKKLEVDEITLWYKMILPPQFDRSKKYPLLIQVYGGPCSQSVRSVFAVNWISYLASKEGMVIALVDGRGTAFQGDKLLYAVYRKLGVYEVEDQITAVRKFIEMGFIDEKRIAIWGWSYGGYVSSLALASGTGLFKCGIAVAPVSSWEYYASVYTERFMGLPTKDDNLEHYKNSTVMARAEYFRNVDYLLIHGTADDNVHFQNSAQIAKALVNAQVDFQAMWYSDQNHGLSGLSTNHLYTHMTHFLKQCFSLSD

C[C@@H](NC(=O)c1ccc(CNC(=O)CN2CCN(CC(=O)O)CCN(CC(=O)O)CCN(CC(=O)O)CC2)cc1)C(=O)N1CCC[C@H]1B(O)O [compound 6555, DOTA-aminomethyl-Bz-D-Ala-boroPro]
6555 Remaining (%) ([1]; 50 mM NH4OAc, RT, 6 hr, (−) mode, no stabilizer, pH 5.4): 74.5% | 6555 Remaining (%) ([1]; 50 mM NH4OAc, RT, 6 hr, (−) mode, sodium metabisulfite 5 mM, pH 5.1): 63.3% | 6555 Remaining (%) ([1]; 50 mM NH4OAc, RT, 7 hr, (−) mode, sodium ascorbate 5 mM, sodium gentisate 2 mM, sodium metabisulfite 5 mM, disodium hydrosulfite 5 mM, pH 5.2): 77.4% | 6555 Remaining (%) ([1]; 50 mM NH4OAc, RT, 7 hr, (−) mode, sodium metabisulfite 5 mM, disodium hydrosulfite 5 mM, pH 5.1): 66.9% | 6555 Remaining (%) ([1]; 50 mM NH4OAc, RT, 8 hr, (−) mode, NAM 5 mM, sodium metabisulfite 5 mM, pH 4.9): 63.2% | 6555 Remaining (%) ([1]; 50 mM NH4OAc, RT, 8 hr, (−) mode, sodium metabisulfite 25 mM, pH 4.2): 63.2% | 6555 Remaining (%) ([1]; 50 mM NH4OAc, RT, 26 hr, (+) mode, no stabilizer, pH 5.4): 95.7% | 6555 Remaining (%) ([1]; 50 mM NH4OAc, RT, 26 hr, (+) mode, sodium ascorbate 5 mM, sodium gentisate 2 mM, sodium metabisulfite 5 mM, disodium hydrosulfite 5 mM, pH 5.2): 96.7% | 6555 Remaining (%) ([1]; 50 mM NH4OAc, RT, 31 hr, (−) mode, no stabilizer, pH 5.4): 82.2% | 6555 Remaining (%) ([1]; 50 mM NH4OAc, RT, 31 hr, (−) mode, sodium ascorbate 5 mM, sodium gentisate 2 mM, sodium metabisulfite 5 mM, disodium hydrosulfite 5 mM, pH 5.2): 77.4% | 6555 Remaining (%) ([1]; Ultrapura water, 40° C., 17 hr, (+) mode, no stabilizer, pH 5.2): 95.4% | 6555 Remaining (%) ([1]; Ultrapura water, 40° C., 17 hr, (+) mode, sodium ascorbate 5 mM, sodium gentisate 2 mM, sodium metabisulfite 5 mM, disodium hydrosulfite 5 mM, pH 5): 96.1% | 6555 Remaining (%) ([1]; Ultrapura water, 40° C., 18 hr, (+) mode, sodium ascorbate 5 mM, sodium gentisate 2 mM, NAM 5 mM, disodium hydrosulfite 5 mM, pH 5.0): 96.2% | 6555 Remaining (%) ([1]; Ultrapura water, 40° C., 18 hr, (+) mode, sodium ascorbate 5 mM, sodium gentisate 2 mM, NAM 5 mM, sodium metabisulfite 5 mM, pH 5.1): 95.6% | 6555 Remaining (%) ([1]; Ultrapura water, 40° C., 27 hr, (−) mode, sodium ascorbate 5 mM, sodium gentisate 2 mM, NAM 5 mM, disodium hydrosulfite 5 mM, pH 5.0): 85.3% | 6555 Remaining (%) ([1]; Ultrapura water, 40° C., 27 hr, (−) mode, sodium ascorbate 5 mM, sodium gentisate 2 mM, NAM 5 mM, sodium metabisulfite 5 mM, pH 5.1): 92.8% | 6555 Remaining (%) ([1]; Ultrapura water, 40° C., 28 hr, (−) mode, no stabilizer, pH 5.2): 83.7% | 6555 Remaining (%) ([1]; Ultrapura water, 40° C., 28 hr, (−) mode, sodium ascorbate 5 mM, sodium gentisate 2 mM, sodium metabisulfite 5 mM, disodium hydrosulfite 5 mM, pH 5.0): 82.9% | 6555 Remain (%) ([1]; mM: ascorbate 0, gentisate 0, NAM 0, metabisulfite 0, hydrosulfite 0, pH 5.2, 17 hrs, SID 90754): 95.4% | 6555 Remain (%) ([1]; mM: ascorbate 0, gentisate 0, NAM 0, metabisulfite 0, hydrosulfite 0, pH 5.2, 28 hrs, SID 90768): 83.7% | 6555 Remain (%) ([1]; mM: ascorbate 0, gentisate 0, NAM 0, metabisulfite 0, hydrosulfite 0, pH 5.4, 6 hrs, SID 90779): 74.5% | 6555 Remain (%) ([1]; mM: ascorbate 0, gentisate 0, NAM 0, metabisulfite 0, hydrosulfite 0, pH 5.4, 26 hrs, SID 90844): 95.7% | 6555 Remain (%) ([1]; mM: ascorbate 0, gentisate 0, NAM 0, metabisulfite 0, hydrosulfite 0, pH 5.4, 31 hrs, SID 90853): 82.2% | 6555 Remain (%) ([1]; mM: ascorbate 0, gentisate 0, NAM 0, metabisulfite 5, hydrosulfite 0, pH 4.9, 8 hrs, SID 90787): 63.2% | 6555 Remain (%) ([1]; mM: ascorbate 0, gentisate 0, NAM 0, metabisulfite 5, hydrosulfite 0, pH 5.1, 6 hrs, SID 90780): 63.3% | 6555 Remain (%) ([1]; mM: ascorbate 0, gentisate 0, NAM 0, metabisulfite 5, hydrosulfite 5, pH 5.1, 7 hrs, SID 90783): 66.9% | 6555 Remain (%) ([1]; mM: ascorbate 0, gentisate 0, NAM 0, metabisulfite 25, hydrosulfite 0, pH 4.2, 8 hrs, SID 90790): 63.2% | 6555 Remain (%) ([1]; mM: ascorbate 5, gentisate 2, NAM 0, metabisulfite 5, hydrosulfite 5, pH 5, 17 hrs, SID 90756): 96.1% | 6555 Remain (%) ([1]; mM: ascorbate 5, gentisate 2, NAM 0, metabisulfite 5, hydrosulfite 5, pH 5, 28 hrs, SID 90772): 82.9% | 6555 Remain (%) ([1]; mM: ascorbate 5, gentisate 2, NAM 0, metabisulfite 5, hydrosulfite 5, pH 5.2, 7 hrs, SID 90786): 77.4% | 6555 Remain (%) ([1]; mM: ascorbate 5, gentisate 2, NAM 0, metabisulfite 5, hydrosulfite 5, pH 5.2, 26 hrs, SID 90845): 96.7% | 6555 Remain (%) ([1]; mM: ascorbate 5, gentisate 2, NAM 0, metabisulfite 5, hydrosulfite 5, pH 5.2, 31 hrs, SID 90854): 77.4% | 6555 Remain (%) ([1]; mM: ascorbate 5, gentisate 2, NAM 5, metabisulfite 0, hydrosulfite 5, pH 5.0, 18 hrs, SID 90755): 96.2% | 6555 Remain (%) ([1]; mM: ascorbate 5, gentisate 2, NAM 5, metabisulfite 0, hydrosulfite 5, pH 5.0, 27 hrs, SID 90771): 85.3% | 6555 Remain (%) ([1]; mM: ascorbate 5, gentisate 2, NAM 5, metabisulfite 5, hydrosulfite 0, pH 5.1, 18 hrs, SID 90753): 95.6% | 6555 Remain (%) ([1]; mM: ascorbate 5, gentisate 2, NAM 5, metabisulfite 5, hydrosulfite 0, pH 5.1, 27 hrs, SID 90769): 92.8% | IC50 (recombinant human FAP): 0.7 nM | degradation in aqueous solution [2]: did not observe any sign of degradation | IC50 [3]: 870 nM | 6555 Remain (%) ([4]; pH 4, 2 mg/mL): 76.2% | 6555 Remain (%) ([4]; pH 5, 2 mg/mL): 70.0%
